In US8946215B2, “Hydroxy-substituted imidazo[1,2-a]pyridinecarboxamides and their use” (Bayer Pharma Aktiengesellschaft, priority 2012, dated 2015):
Counter-ions that a name gives are not always drawn.

Biological target: T1, recombinant guanylate cyclase reporter cell line (Rattus norvegicus, UniProt P19686+P20595)
T1 construct: expressed in transfected cells
T1 sequence (P20595 1-619): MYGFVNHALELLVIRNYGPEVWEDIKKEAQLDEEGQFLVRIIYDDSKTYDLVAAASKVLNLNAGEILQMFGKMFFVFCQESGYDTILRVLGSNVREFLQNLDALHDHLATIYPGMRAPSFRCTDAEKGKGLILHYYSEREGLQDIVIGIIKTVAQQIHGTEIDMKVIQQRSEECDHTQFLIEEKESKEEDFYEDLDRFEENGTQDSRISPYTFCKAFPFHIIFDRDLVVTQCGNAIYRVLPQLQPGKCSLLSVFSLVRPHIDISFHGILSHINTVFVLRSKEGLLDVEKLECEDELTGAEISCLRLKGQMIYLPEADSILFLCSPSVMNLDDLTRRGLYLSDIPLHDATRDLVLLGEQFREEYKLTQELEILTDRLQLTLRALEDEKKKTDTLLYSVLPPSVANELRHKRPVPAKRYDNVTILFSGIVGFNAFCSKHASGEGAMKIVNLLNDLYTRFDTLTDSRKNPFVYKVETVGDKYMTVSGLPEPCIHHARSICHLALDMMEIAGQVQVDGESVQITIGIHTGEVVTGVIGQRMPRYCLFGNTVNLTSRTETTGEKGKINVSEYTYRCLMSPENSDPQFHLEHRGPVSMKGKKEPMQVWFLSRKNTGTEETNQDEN
T1 sequence (P19686 1-690): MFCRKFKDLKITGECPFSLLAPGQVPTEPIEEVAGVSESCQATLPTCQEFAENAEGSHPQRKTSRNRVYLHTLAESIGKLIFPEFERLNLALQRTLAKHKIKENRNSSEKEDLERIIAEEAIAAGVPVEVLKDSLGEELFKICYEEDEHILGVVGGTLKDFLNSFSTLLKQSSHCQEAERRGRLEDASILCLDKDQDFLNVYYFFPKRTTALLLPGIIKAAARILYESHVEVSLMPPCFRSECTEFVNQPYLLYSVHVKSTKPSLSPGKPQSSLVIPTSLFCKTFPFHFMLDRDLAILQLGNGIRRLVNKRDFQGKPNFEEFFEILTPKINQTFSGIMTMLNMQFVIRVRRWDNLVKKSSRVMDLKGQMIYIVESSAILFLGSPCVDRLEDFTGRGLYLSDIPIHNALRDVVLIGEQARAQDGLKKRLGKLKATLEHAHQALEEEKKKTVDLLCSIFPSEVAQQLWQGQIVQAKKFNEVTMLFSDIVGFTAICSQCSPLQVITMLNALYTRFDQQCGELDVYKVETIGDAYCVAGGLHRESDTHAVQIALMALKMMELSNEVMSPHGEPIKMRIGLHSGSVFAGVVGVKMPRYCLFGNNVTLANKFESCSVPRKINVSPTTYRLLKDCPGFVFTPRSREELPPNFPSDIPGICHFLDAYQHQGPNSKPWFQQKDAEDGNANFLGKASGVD
Test: Action on recombinant guanylate cyclase reporter cell line
Assay type: cell-based
Conditions: in some cases mean values obtained from individual determinations
Summary of the method: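 Cell-based reporter assay with recombinant guanylate cyclase expressed in a reporter cell line, per a published method. Activity reported as minimal effective concentration (MEC), in some cases as the mean of individual determinations.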

Compound | MEC (minimal effective concentration)
CC[C@H](CO)NC(=O)c1c(C)nc2c(OCc3cccc(Cl)c3Cl)cccn12 [Example 45, 8-[(2,3-dichlorobenzyl)oxy]-N-[(2R)-1-hydroxybutan-2-yl]-2-methylimidazo[1,2-a]-pyridine-3-carboxamide] | 0.65 µM
Cc1nc2c(OCC3CCCCC3)cccn2c1C(=O)NC[C@@H](O)CO [Example 80, 8-(cyclohexylmethoxy)-N-[(2R)-2,3-dihydroxypropyl]-2-methylimidazo[1,2-a]pyridine-3-carboxamide] | 0.3 µM
Cc1cc(OCc2ncccc2F)c2nc(C)c(C(=O)NC(CCCC(F)(F)C(F)(F)F)C(C)(C)O)n2c1 (racemic) [Example 190, rac-8-[(3-fluoropyridin-2-yl)methoxy]-2,6-dimethyl-N-(7,7,8,8,8-pentafluor-2-hydroxy-2-methyloctan-3-yl)imidazo[1,2-a]pyridine-3-carboxamide (racemate)] | 1 µM
CCC(C)[C@H](CO)NC(=O)c1c(C)nc2c(OCC3CCCCC3)cccn12 (stereo partly drawn) [Example 96, 8-(cyclohexylmethoxy)-N-[(2R)-1-hydroxy-3-methylpentan-2-yl]-2-methylimidazo[1,2-a]pyridine-3-carboxamide] | 3.0 µM
CCCCC(NC(=O)c1c(C)nc2c(OC(C)c3c(F)cccc3F)cc(C)cn12)C(C)(C)O (single isomer, unassigned; ent-8) [Example 171, ent-8-[1-(2,6-Difluorophenyl)ethoxy]-N-(2-hydroxy-2-methylheptan-3-yl)-2,6-dimethylimidazo-[1,2-a]pyridine-3-carboxamide] | 1.0 µM
Cc1nc2c(OCc3ccccc3)cccn2c1C(=O)N[C@@H](C)CO [Example 46, 8-(Benzyloxy)-N-[(2S)-1-hydroxypropan-2-yl]-2-methylimidazo[1,2-a]pyridine-3-carboxamide] | 3.0 µM
Cc1nc2c(OCc3c(F)cccc3F)cccn2c1C(=O)N[C@H]1CCC[C@@H]1O [Example 19] | 1.0 µM
CCCC[C@H](CO)NC(=O)c1c(C)nc2c(OCc3c(F)cccc3F)cc(N3CCCC3)cn12 [Example 64, 8-[(2,6-difluorobenzyl)oxy]-N-[(2R)-1-hydroxyhexan-2-yl]-2-methyl-6-(pyrrolidin-1-yl)imidazo[1,2-a]pyridine-3-carboxamide] | 3.0 µM
Cc1nc2c(OCC3CCCCC3)cccn2c1C(=O)NC(CO)CO [Example 85, 8-(cyclohexylmethoxy)-N-(1,3-dihydroxypropan-2-yl)-2-methylimidazo[1,2-a]pyridine-3-carboxamide] | 0.38 µM
Cc1nc2c(OCc3ncccc3F)cccn2c1C(=O)NC(CCCC(F)(F)F)C(C)(C)O (single isomer, unassigned; ent-8) [Example 183, ent-8-[(3-fluoropyridin-2-yl)methoxy]-2-methyl-N-(7,7,7-trifluoro-2-hydroxy-2-methylheptan-3-yl)imidazo[1,2-a]pyridine-3-carboxamide (enantiomer B)] | 0.3 µM
Cc1nc2c(OCC3CCCCC3)cccn2c1C(=O)N[C@H](CO)C(C)C [Example 93, 8-(cyclohexylmethoxy)-N-[(2S)-1-hydroxy-3-methylbutan-2-yl]-2-methylimidazo[1,2-a]pyridine-3-carboxamide] | 1.0 µM
Cc1nc2c(OCC3CCCCC3)cccn2c1C(=O)NC(C)CO (centres unmarked) [Example 84, 8-(cyclohexylmethoxy)-N-(1-hydroxypropan-2-yl)-2-methylimidazo[1,2-a]pyridine-3-carboxamide] | 0.3 µM
Cc1nc2c(OCc3ccccc3F)cccn2c1C(=O)NC(CO)CO [Example 51, N-(1,3-dihydroxypropan-2-yl)-8-[(2-fluorobenzyl)oxy]-2-methylimidazo[1,2-a]pyridine-3-carboxamide] | 5.5 µM
Cc1nc2c(OCC3CCCCC3)cccn2c1C(=O)NC[C@H](O)CO [Example 68, 8-(cyclohexylmethoxy)-N-[(2S)-2,3-dihydroxypropyl]-2-methylimidazo[1,2-a]pyridine-3-carboxamide] | 0.03 µM
CSCC[C@@H](CO)NC(=O)c1c(C)nc2c(OCC3CCCCC3)cccn12 [Example 90, 8-(cyclohexylmethoxy)-N-[(2S)-1-hydroxy-4-(methylsulphanyl)butan-2-yl]-2-methylimidazo[1,2-a]pyridine-3-carboxamide] | 1.0 µM
CCc1nc2c(OCC3CCCCC3)cccn2c1C(=O)N[C@H](C)CO [Example 55, 8-(Cyclohexylmethoxy)-2-ethyl-N-[(2R)-1-hydroxypropan-2-yl]imidazo[1,2-a]pyridine-3-carboxamide formic acid salt] | 0.1 µM

Continued, values first:

MEC (minimal effective concentration) | Compound
0.03 µM | Cc1nc2c(OCc3c(F)cccc3F)cccn2c1C(=O)NC(CO)CC(F)(F)F (racemic) [Example 113, rac-8-[(2,6-Difluorobenzyl)oxy]-2-methyl-N-(4,4,4-trifluoro-1-hydroxybutan-2-yl)imidazo[1,2-a]-pyridine-3-carboxamide]
1.0 µM | Cc1nc2c(OCc3c(F)cccc3F)cccn2c1C(=O)N[C@@H](CO)C(C)(C)O [Example 165, 8-[(2,6-Difluorobenzyl)oxy]-N-[(2S)-3-dihydroxy-3-methylbutan-2-yl]-2-methylimidazo[1,2-a]-pyridine-3-carboxamide]
0.1 µM | CCCC[C@H](CO)NC(=O)c1c(C)nc2c(OCc3c(F)cccc3Cl)cccn12 [Example 3]
0.16 µM | CC[C@H](CO)NC(=O)c1c(C)nc2c(OCc3c(F)cccc3F)cccn12 [Example 43, 8-[(2,6-Difluorobenzyl)oxy]-N-[(2R)-1-hydroxybutan-2-yl]-2-methylimidazo[1,2-a]pyridine-3-carboxamide]
1.0 µM | Cc1nc2c(OCc3c(F)cccc3F)cccn2c1C(=O)NC(C)(C)[C@H](C)O [Example 20]
3.0 µM | CCCC[C@H](CO)NC(=O)c1c(C)nc2c(OCc3cccc(C(F)(F)F)c3F)cccn12 [Example 14]
0.5 µM | CCCC[C@H](CO)NC(=O)c1c(C)nc2c(OCc3cccc(Cl)c3Cl)cccn12 [Example 9]
0.03 µM | Cc1nc2c(OCc3c(F)cccc3F)cccn2c1C(=O)NC(CO)CCC(F)(F)F (single isomer, unassigned; ent-8) [Example 122, ent-8-[(2,6-Difluorobenzyl)oxy]-2-methyl-N-(5,5,5-trifluoro-1-hydroxypentan-2-yl)imidazo[1,2-a]-pyridine-3-carboxamide]
0.1 µM | CCCC[C@@H](NC(=O)c1c(C)nc2c(OCc3c(F)cccc3F)cccn12)C(O)C(F)(F)F (stereo partly drawn) [Example 142, 8-[(2,6-Difluorobenzyl)oxy]-2-methyl-N-[(3R)-1,1,1-trifluoro-2-hydroxyheptan-3-yl]imidazo[1,2-a]pyridine-3-carboxamide]
0.3 µM | CCCOCC(CO)NC(=O)c1c(C)nc2c(OCc3c(F)cccc3F)cccn12 (racemic) [Example 162, rac-8-[(2,6-Difluorobenzyl)oxy]-N-(1-hydroxy-3-propoxypropan-2-yl)-2-methylimidazo[1,2-a]-pyridine-3-carboxamide]
